Assay results as given in BindingDB's records for doi:10.3109/14756366.2012.732071 (Ondokuz Mayis University, 2013).

Experiments:
Carbonic anhydrase 1 = Carbonic anhydrase 1 (Homo sapiens, UniProt P00915); assay: Esterase Assay; conditions: pH 7.4; 25 °C
Description: (§1) The enzymatic reaction, in a total volume of 3.0 mL, contained 1.4 mL 0.05 M Tris-SO4 buffer (pH 7.4), 1 mL 3 mM NPA, 0.5 mL H2O and 0.1 mL enzyme solution. A reference measurement was obtained by preparing the same cuvette without enzyme solution. All compounds were tested in triplicate at each concentration used.

Carbonic anhydrase 2 = Carbonic anhydrase 2 (Homo sapiens, UniProt P00918); assay: Esterase Assay; conditions: pH 7.4; 25 °C
Description: as §1

Chain of Carbonic anhydrase 1 (P00915 whole entry): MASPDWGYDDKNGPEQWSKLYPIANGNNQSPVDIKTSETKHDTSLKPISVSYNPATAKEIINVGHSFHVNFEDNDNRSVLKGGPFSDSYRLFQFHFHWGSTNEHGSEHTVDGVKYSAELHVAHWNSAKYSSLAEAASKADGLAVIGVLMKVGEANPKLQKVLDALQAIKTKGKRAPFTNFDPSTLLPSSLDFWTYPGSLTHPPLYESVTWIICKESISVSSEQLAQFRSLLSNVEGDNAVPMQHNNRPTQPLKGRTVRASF

Compound | Ki (Carbonic anhydrase 1) [µM] | Ki (Carbonic anhydrase 2) [µM]
Cc1cccc(N2C(=O)[C@@H](C)S[C@H]2c2sccc2C)n1 [Thiazolidin-based CA inhibitor, 5b] | 29.4 | 3.59
Cc1cccc(N2C(=O)CSC2c2cccs2)n1 (stereo unspecified) [Thiazolidin-based CA inhibitor, 1] | 6.8 | 1.34
Cc1cccc(N2C(=O)CSC2c2ccc(C)s2)n1 (stereo unspecified) [Thiazolidin-based CA inhibitor, 3] | 5.38 | 1.36
Cc1cccc(N2C(=O)C(C)SC2c2cccs2)n1 (stereo unspecified) [Thiazolidin-based CA inhibitor, 4] | 5.51 | 1.32
Cc1cccc(N2C(=O)CSC2c2sccc2C)n1 (stereo unspecified) [Thiazolidin-based CA inhibitor, 2] | 47.5 | 2.48

Now from value to compound:

Ki (Carbonic anhydrase 1) [µM] | Ki (Carbonic anhydrase 2) [µM] | Compound
27.5 | 2.29 | Cc1cccc(N2C(=O)[C@H](C)S[C@H]2c2sccc2C)n1 [Thiazolidin-based CA inhibitor, 5a]
5.58 | 0.93 | Cc1cccc(N2C(=O)[C@H](C)S[C@H]2c2ccc(C)s2)n1 [(2S,5S)-5-methyl-3-(6-methylpyridin-2-yl)-2-(5-methylthiophen-2-yl)thiazolidin-4-one]
4.43 | 0.81 | Cc1cccc(N2C(=O)[C@@H](C)S[C@H]2c2ccc(C)s2)n1 [(2S,5R)-5-methyl-3-(6-methylpyridin-2-yl)-2-(5-methylthiophen-2-yl)thiazolidin-4-one]
